Source: PMC8305169, “Two Pathway-Specific Transcriptional Regulators, PltR and PltZ, Coordinate Autoinduction of Pyoluteorin in Pseudomonas protegens Pf-5” (Microorganisms, 2021)

Molecular target: T1, PltZ (Pseudomonas protegens, UniProt Q4KCY3)
T1 construct: full-length, N-terminal 6xHis tag (pET28a), expressed in E. coli BL21 (DE3), Ni-NTA purified
Assay: isothermal titration calorimetry
Format: binding

T1 sequence (Q4KCY3 entry or part of it): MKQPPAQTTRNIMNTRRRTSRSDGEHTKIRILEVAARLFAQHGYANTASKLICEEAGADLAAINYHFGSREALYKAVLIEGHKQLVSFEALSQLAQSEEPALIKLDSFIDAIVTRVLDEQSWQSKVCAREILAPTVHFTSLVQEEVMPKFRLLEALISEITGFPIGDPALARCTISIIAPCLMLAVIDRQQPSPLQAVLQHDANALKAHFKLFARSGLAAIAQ

SMILES: O=C(c1cc(Cl)c(Cl)[nH]1)c1c(O)cccc1O [pyoluteorin]
- Kd: ~13.2 nM
